Measurements reported in patent publication US20070197562A1, “Remedies for prostatic hypertrophy” (Yokohama TLO Company, Ltd., priority 2004, published 2007).

Key:
F-1 cells = assay: IL-6 secretion by primary-cultured F-1 cells (CLEIA); format: cell-based, human; conditions: AII (10 μM)+CV 10 μM; 24 hours; P<0.03 vs AII (10 μM)
Method: The primary-cultured stromal cells (F-1 cells) derived from a patient with prostatic hypertrophy were prepared as described below.
Tissues obtained from the patient were placed in a 50 mL centrifuge tube containing 20 mL of a medium (RPMI 1640, GIBCO 11835-030) supplemented with 10% (V/V) FBS (filtron) and mg/mL penicillin/streptomycin (GIBCO 15140-122), and allowed to stand at 4° C. for 1 hour or longer. Subsequently, the tissues were placed in a 10-cm dish, and cut into pieces of about 1 mm square. Blood vessels and the like were removed. At that time, to remove excessive blood (if necessary), the tissues were washed by adding 20 mL of the medium and centrifuging the mixture for 5 minutes at 1,000 rpm, followed by aspiration of the supernatant. […]
PrSC cells prepared in the same manner as Example 1, or F-1 or FT-FB cells prepared as described above were placed in a 6-well dish at 10^5 cells per well, cultured at 5% CO2 and 37° C. for 1 day (24 hours), and stimulated by the addition of TGFβ (1 ng/mL), TNFα (1 ng/mL), EGF (2.5 or 10 ng/mL), or angiotensin II (1 μM or 10 μM) (n=3). […] The culture media were collected 24 hours after adding the reagents, and the concentrations of IL-6 were determined by the CLEIA method.

PC-3 tumor grafts = assay: In vivo effect on PC-3 tumor grafts transplanted on mice; conditions: PC-3 cells transplanted; CV 5 or 10 mg/kg/day orally in drinking water, first to fifth week; male nude mice
Method: (§1) The in vivo effect of the AIIR blocker was examined using the PC-3 human prostatic cancer cells with less expression of AT1 receptors (obtained from American Type Culture Collection, Rockville, Md., USA), and PrSC cells. PC-3 cells (5×10^6 cells) or a mixture of PC-3 and PrSC cells (2.5×10^6 cells each; a total of 5×10^6 cells) were injected subcutaneously in the back of male nude mice of 4 weeks old for forming tumors. Tumors having a diameter of about 5 mm were formed after one week. The above-described mice were divided into three groups: CV (5 mg/kg/day) administered group, CV (10 mg/kg/day) administered group, and non-administered group (Control) (n=4 for each group). The administered groups were orally administered with a specified dose of CV dissolved in drinking water every day from the first to the fifth week after the tumorigenic injection. The size of the tumor (heterograft) on each mouse was measured every week, and the volume was calculated using the formula: major axis×minor axis×minor axis/2. The volume was expressed as relative ratio to the volume in the first week as being 1. The results are shown in FIGS. 8 (PC-3 cells were transplanted) and 9 (a mixture of PC-3 and PrSC cells was transplanted).

PrSC cells = assay: Proliferation of PrSC cells stimulated with angiotensin II, TGFβ or EGF (cell count, Examples 1-3); format: cell-based, human; conditions: 5 days
Method: A Cell Line Derived from Normal Human Prostatic stromal cells, i.e., PrSC cells, was purchased from Sanko Junyaku Co. Ltd. (Normal Human Prostate Stromal Cells, catalogue number CC-2508), and maintained by subculturing them in a phenol red-free RPMI medium under conditions of 5% CO2 and 37° C.
The PrSC cells (10^4 cells) were placed in a 12-well dish, and cultured in a phenol red-free medium containing 0.1% (W/V) BSA under conditions of 5% CO2 and 37° C. for several days. Then, 1 μM or 10 μM of angiotensin II was added. To some wells, CV (10 μM; hereinafter CV was used at this concentration unless otherwise noted) was added as an AIIR blocker 4 hours before adding angiotensin II. Each group contained four wells (n=4). After culturing the cells at 5% CO2 and 37° C. for 5 days, the number of all cells in each of the wells was counted.
The effect of an AIIR blocker was examined in the same manner as Example 1, except for that 10 ng/mL of TGFβ was used in place of angiotensin II.
The effect of an AIIR blocker was examined in the same manner as Example 1, except for that 10 ng/mL of EGF was used in place of angiotensin II.

[1] = tested on: mixed tumor grafts of PC-3 cells and PrSC cells; assay: In vivo effect on mixed tumor grafts of PC-3 cells and PrSC cells transplanted on mice
Method: as §1

Structure (SMILES): CCOc1nc2cccc(C(=O)OC(C)OC(=O)OC3CCCCC3)c2n1Cc1ccc(-c2ccccc2-c2nnn[nH]2)cc1 (centres unmarked) [CV, 1-(cyclohexyloxycarbonyloxy)ethyl 2-ethoxy-1-[[2′-(1H-tetrazole-5-yl)biphenyl-4-yl]methyl]-1H-benzimidazole-7-carboxylate]
- IL-6 secretion (F-1 cells): significantly suppressed
- proliferation (relative tumor volume) vs Control (PC-3 tumor grafts): suppression of proliferation was observed for the CV administered groups as compared to “Control”, but the effect was not so remarkable
- increase in the numbers of cells (PrSC cells; AII (1 μM)+CV 10 μM added 4 hours before, P<0.01 vs AII (1 μM)): suppressed to a level similar to that of the control group
- increase in the numbers of cells (PrSC cells; AII (10 μM)+CV 10 μM added 4 hours before, P<0.01 vs AII (10 μM)): suppressed to a level similar to that of the control group
- increase in the number of cells (PrSC cells; EGF 10 ng/mL + CV 10 μM, P<0.05): significantly suppressed (P<0.05) to the same level as that of the control group
- increase in the number of cells (PrSC cells; TGFβ 10 ng/mL + CV 10 μM, P<0.05 vs TGFβ): significantly suppressed
- proliferation (relative tumor volume) vs Control ([1]; mixture of PC-3 and PrSC cells transplanted, CV 5 or 10 mg/kg/day orally in drinking water, first to fifth week, male nude mice): dose-dependently suppressed
- relative tumor volume, difference from Control ([1]; mixture of PC-3 and PrSC cells, CV 10 mg/kg/day, fourth and fifth weeks (P<0.04 and P<0.03)): significant differences
